Patent publication US6774131B1, “Remedies for endothelin-induced diseases” (Yamanouchi Pharmaceutical Co., Ltd., priority 2000, dated 2004)

Experiments:
Assay type in all cases: cell-based
[1] = test system: MC3T3-E1, mouse osteoblast-like cells; experiment: ET-1-induced increase of intracellular Ca2+ concentration in MC3T3-E1
Description: (§1) MC3T3-E1, mouse osteoblast-like cells, was used in these experiments (Journal of Cell Biology,96(1),191-198,1983).
The cell was cultured in a cell disk (of a 13.5-mm diameter) until the cell reached confluency; thereafter, the cell was then cultured in the absence of serum, for about 12 hours or longer and used for this experiment. Fura2-AM (4 μM) was added to the cell in the Hank's balanced salt solution (HBSS) (140 mM NaCl, 4 MM KCl, 1 mM K2HPO4, 1 mM MgCl2, 1 mM CaCl2, 10 mM glucose and 20 mM Hepes, pH-7.4) and incubated at 37° C. for one hour. The cell disk was fixed in a quartz cell placing therein HBSS; the quartz cell was fixed in an intracellular Ca^2+ assay unit (CAF-110). […] Intracellular Ca^2+ concentration was estimated by measuring and detecting the ratio of fluorescence intensities at 500 nm with excitation wave lengths of 340/380 nm and calculating intracellular Ca^2+ concentration using designated formula (J.Biol.Chem.,260,3440-3450,1985). […]
(§2) The results are shown in the form of mean±standard error. The significant difference between groups was analyzed by one-way analysis of variance, to calculate the p-values by the Dunnett's multiple range test. […] At each experiment, the EC50 value of ET-1 and the IC50 value of the Compound 1 were calculated by the Logistic regression analysis.

[2] = test system: MC3T3-E1, mouse osteoblast-like cells; experiment: ET-1-induced DNA synthesis ([3H]-thymidine incorporation) in MC3T3-E1
Description: as §1
As DNA synthesis level, the incorporation of [^3H]-labeled thymidine was assayed. The cells were seeded at a density of 1.5×10^4 cells/well in a 96-well plate using 0.2% FCS culture medium and cultured for 2 days. Subsequently, vehicle or ET-1 was added to the plate and cultured for 24 hours. Continuously, [^3H-methyl]-thymidine was added at 0.5 μCi/well to the culture and pulse-labeling performed for 6 hours. Continuously, SDS solution to a final concentration of 0.2% was added for solubilization of the cell, and after solubilization the radioactivity of [^3H-methyl]-thymidine used for DNA synthesis was counted with a liquid scintillation counter. As a control, the count of a culture to which the vehicle was added was defined 100%, thus the percentage increase of DNA synthesis was calculated. […]
as §2

[3] = test system: PPC-1, hormone-refractory human prostate cancer cells; experiment: ET-1-induced cell growth ([3H]-thymidine incorporation) of PPC-1
Description: PPC-1, hormone-refractory human prostate cancer cells, was used in these experiments (International Journal of Cancer,44,898-903,1989).
DNA synthesis level was measured as the index of cell growth. As DNA synthesis level, the incorporation of [^3H]-labeled thymidine was assayed. The cells were seeded at a density of 1×10^4 cells/well in a 96-well plate using no FCS-added culture medium and cultured for 5 days. Subsequently, vehicle or ET-1 was added to the plate and cultured for 24 hours. Continuously, [^3H-methyl]-thymidine was added at 0.5 μCi/well to the culture and pulse-labeling performed for 6 hours. Continuously, SDS solution to a final concentration of 0.2% was added for solubilization of the cell, and after solubilization the radioactivity of [^3H-methyl]-thymidine used for DNA synthesis was counted with a liquid scintillation counter. As a control, the count of a culture to which the vehicle was added was defined 100%, thus the percentage increase of DNA synthesis was calculated.
In this experiment, ET-1 and Compound 1 were within the concentration ranges of 10^−13 to 10^−6 M (10-fold dilution series) and 10^−10 to 3×10^−6 M (3-fold dilution series), respectively, as the final concentrations thereof. Compound 1 was added about 2 hr before the addition of ET-1.
The results are shown in the form of mean t standard error. The significant difference between groups was analyzed by one-way analysis of variance, and calculated the p-values by the Dunnett's multiple range test. The p-value below 5% was defined as statistically significant. The IC50 value of the Compound 1 were calculated by the Logistic regression analysis.

[4] = test system: MC3T3-E1, mouse osteoblast-like cells; experiment: ET-1-induced cell number increase in MC3T3-E1 (cell counting kit, WST-1)
Description: as §1
Cell number was counted by using a reagent solution of a cell counting kit (DOJINDO). The cells were seeded at a density of 1.0×10^4 cells/well in a 24-well plate using 0.5% FCS culture medium and cultured for one day. Subsequently, vehicle or ET-1 was added to the plate and cultured for 72 hours. Continuously, a reagent solution was added at 100 μl/well to the culture and incubated at 37° C. for 3 hours. After this reaction, 200-μl portions were transferred from the individual wells of the 24-well plate to a 96-well plate, to measure the absorbance (at a wave length of 405 nm and a reference wave length of 650 nm) with a plate reader. As a control, the count of a culture to which the vehicle was added was defined 100%, thus the percentage increase of cell number was calculated. […]
as §2

[5] = test system: PPC-1, hormone-refractory human prostate cancer cells; experiment: ET-1-induced cell growth (cell number, alamar blue) of PPC-1; settings: for Cell growth (%): control = 100
Description: PPC-1, hormone-refractory human prostate cancer cells, was used in these experiments(International Journal of Cancer,44,898-903,1989).
Cell number was counted by using a reagent solution of a alamar blue. The cells were seeded at 2×10^4 cells/well in a 24-well plate, after adhesion, the culture media were exchanged to culture media with no FCS-added, and further cultured for another 24 hours. Thereafter, vehicle or ET-1 (10^−11 to 10^−6 M) was added, and cultured for 96 hours. The final volume of the culture medium was 500 μl. Alamar blue of 50 μl was added to the culture, and incubated for 4 hours. After reaction, 100 μl portions collected from the individual wells of the 24-well plate were then transferred to a 96-well plate, and measured the absorbance (at a wave length of 405 nm and a reference wave length of 650 nm) with a plate reader. As a control, the count of a culture to which the vehicle was added was defined 100%, thus the percentage increase of cell number was calculated. The inhibitory effect of the compound was examined by adding the Compound 1 to a final concentration of 10^−9 to 10^−5 M, 30 minutes prior to the addition of ET-1 at 10^−7 M.
At the experiment, the culture medium was exchanged to a culture medium to which ET-1 was contained, 48 hours after stimulation, because the degradation of ET-1 was possible.

IC50 ([1]; ET-1 10^−8 M)	IC50 ([2]; ET-1 10^−10 M, read-out: IC50 of ET-1-induced increase in [3H]-thymidine incorporation)	IC50 ([3]; ET-1 10^−8 M, [3H]-thymidine incorporation, read-out: IC50 of ET-1-induced promotion of PPC-1 cell growth)	EC50 ([1]; ET-1 10^−12 to 10^−6 M)	EC50 ([2]; ET-1 10^−13 to 10^−6 M, read-out: EC50 of increase of [3H]-thymidine incorporation (DNA synthesis))	Compound	concentration above which the inhibitory effect was statistically significant ([3]; ET-1 10^−8 M)	IC50 ([4]; ET-1 10^−9 M)	Cell growth (%) ([5]; Compound 1 10^−5 M with ET-1 10^−7 M, n = 7)	Cell growth (%) ([5]; Compound 1 10^−6 M with ET-1 10^−7 M, n = 7)	concentration from which ET-1-induced cell growth was inhibited ([5]; ET-1 10^−7 M)	concentration above which the effect of ET-1 on [3H]-thymidine incorporation was statistically significant [3]	EC50 ([4]; ET-1 10^−12 to 10^−6 M, WST-1)	concentration from which ET-1-induced cell growth was observed [5]	Cell growth (%) ([5]; ET-1 10^−7 M, 96 h, n = 7 (Table 2))	Cell growth (%) ([5]; ET-1 10^−7 M, Compound 1 0 (Table 3), n = 7)	Cell growth (%) ([5]; ET-1 10^−8 M, 96 h, n = 7)	Cell growth (%) ([5]; ET-1 10^−9 M, 96 h, n = 7)	Cell growth (%) ([5]; ET-1 10^−10 M, 96 h, n = 7)	Cell growth (%) ([5]; ET-1 10^−11 M, 96 h, n = 7)
10.2 nM	11.5 nM	28 ± 9.8 nM	–	–	COc1ccccc1Oc1c(NS(=O)(=O)C=Cc2ccccc2)nc(-c2ncccn2)nc1OC.[K] [Compound 1, N-[6-methoxy-5-(2-methoxyphenoxy)-2-(2-pyrimidinyl)-4-pyrimidinyl]-2-phenylethenesulfoneamide•potassium salt]	above 3×10^−7 M	9.54 nM	98.1%	99.2%	≥ 10^−6 M	–	–	–	–	–	–	–	–	–
–	–	–	7.39 nM	0.00984 nM	ET-1: endothelin; induces pain in humans and experimental animals; used as stimulus of pain, Ca2+ increase and cell growth [reference compound]	–	–	–	–	–	above 10^−8 M	0.022 nM	≥ 10^−11 M	119.3%	110.5%	115.3%	124.0%	122.3%	119.6%
